# Laboratory results published in patent US9216186B2, “Combination of a pyrroloquinoline compound and an aminoglycodise antimicrobial agent” (HELPERBY THERAPEUTICS LIMITED, priority 2010, dated 2015).
# Several values for one entry are separate records, joined by “and”; a condition that tells them apart may be missing. Identical values can stand only once. Counter-ions that a name gives are not always drawn. Like-named read-outs stand apart in the source and are kept apart here.
# Columns and labels:
# Type in all cases: cell-based
# [1] = system: Staphylococcus aureus (Oxford); assay: Minimum inhibitory concentration (MIC), broth dilution in Iso-Sensitest broth; settings: S. aureus (Oxford), overnight incubation at 37° C.
# Experimental: Staphylococcus aureus (Oxford); Gram positive; Reference strain.
# Iso-Sensitest Broth (Oxoid) was used for evaluation of Minimum inhibitory concentrations (MICs), susceptibility tests for antimicrobials, and efficacy of antimicrobial combinations.
# The stock solution of each drug was diluted to required concentrations. 10 μl of drug from each dilution was taken and mixed with 290 μl of culture with 10^6 of bacterial cells on a 96-well plate to make the final required concentrations (μg/ml).
# The plates were read at 405 nm using a 96-well plate reader Elx 800 equipped with a 405-nm filter (Bio-Tek) before and after incubation. The MIC values of the drugs were determined by comparison of the optical density reading between prior and post drug treatment.
# [2] = system: Staphylococcus aureus (Oxford); assay: Minimum bactericidal concentration (MBC), subculture on drug-free TSA plates; settings: S. aureus (Oxford)
# [3] = system: stationary phase Pseudomonas aeruginosa (clinical isolate); assay: Kill curve by CFU counts against stationary phase bacteria
# Experimental: (§1) Pseudomonas aeruginosa (clinical isolate).
# A single colony of Ps. aeruginosa was inoculated in 10 ml of Nutrient Broth No. 2 (NB) (Oxoid) which was incubated overnight at 37° C. with continuous shaking at 120 rpm. 200 μl of the overnight culture was added into a 500 ml screw-cap which contained 100 ml of NB. The 100 ml culture was incubated at 37° C. with continuous shaking for 5 to 6 days. The cultures were diluted with phosphate buffered saline to 10^7 CFU/ml.
# The activities of the combination and each of the individual drugs were measured by CFU counts at 0, 2, 4, 6 and 8 hours. CFU counts were performed as follows: from serial 10-fold dilutions of the experimental cultures, 100 μl samples were added to triplicate plates of nutrient agar plates (Oxoid). Colony forming units (CFU) were counted after incubation of the plates at 37° C. for 24 hours.
# [4] = system: log phase Pseudomonas aeruginosa (clinical isolate); assay: Chequerboard analysis of log phase bacteria, optical density at 405 nm / MIC; settings: for MIC: single agent, range up to 64 μg/ml HT61, 16 μg/ml tobramycin
# Experimental: as §1
# P. aeruginosa was grown in 10 ml of NB overnight at 37° C. with continuous shaking at 120 rpm. The overnight cultures were diluted 1000× with iso-sensitest broth to obtain a cell suspension containing the bacteria at 10^6 CFU/ml. The cultures were incubated at 37° C. with shaking for 1-2 hours served as log-phase cultures. Viability of the bacteria was estimated by colony forming unit (CFU) counts.
# The two drugs were serially diluted twofold to 0 and combined in a pattern of an array.
# The optical density of the bacterial cells was read at 405 nm using a plate reader (Bio TEK). The MIC concentration was determined as the lowest concentration of drug which inhibits the bacterial growth. The MIC values of the drugs were determined by comparison of the optical density reading between prior and post drug treatment.
# [5] = system: clinically latent microorganisms; assay: Screening of compounds for ability to kill clinically latent microorganisms (method of WO2000028074); settings: observed by the Applicant using the method of WO2000028074
# Description: International Patent Application, Publication Number WO2000028074 describes a method of screening compounds to determine their ability to kill clinically latent microorganisms. […] This observation has necessitated the development of novel antimicrobials which may be used to kill clinically latent microorganisms.
# By way of example, WO2000028074 describes a suitable method of screening compounds to determine their ability to kill clinically latent microorganisms. A typical method may include the following steps: • (1) growing a bacterial culture to stationary phase; • (2) treating the stationary phase culture with one or more antimicrobial agents at a concentration and or time sufficient to kill growing bacteria, thereby selecting a phenotypically resistant sub-population; • (3) incubating a sample of the phenotypically resistant subpopulation with one or more test compounds or agents; and • (4) assessing any antimicrobial effects against the phenotypically resistant subpopulation.
# [6] = Staphylococcus aureus, read-out: MIC
molecule,measurement,setting,value
"Cc1nc2ccc(Oc3ccccc3)cc2c2c1CCN2CCc1ccccc1 [4-methyl-8-phenoxy-1-(2-phenylethyl)-2,3-dihydro-1H-pyrrolo[3,2-c]quinoline]",MIC,[1]; [6],8 µg/mL
same,MBC,"[2]; Staphylococcus aureus, read-out: MBC",16 µg/mL
"Cc1nc2ccc(Oc3ccccc3)cc2c2c1CCN2CCc1ccccc1 [HT61, 4-methyl-8-phenoxy-1-(2-phenylethyl)-2,3-dihydro-1H-pyrrolo[3,2-c]quinoline mesylate]",activity alone against stationary phase P. aeruginosa,"[3]; alone at 32, 16 and 8 μg/ml",slight or no activities
same,optical density at 405 nm,"[4]; HT61 1 μg/ml alone (tobramycin 0), mesylate",3.16 and 3.08
same,optical density at 405 nm,"[4]; HT61 2 μg/ml alone (tobramycin 0), mesylate",3.12 and 3.11
same,optical density at 405 nm,"[4]; HT61 4 μg/ml alone (tobramycin 0), mesylate",3.11 and 3.10
same,optical density at 405 nm,"[4]; HT61 8 μg/ml alone (tobramycin 0), mesylate",3.15 and 3.10
same,optical density at 405 nm,"[4]; HT61 16 μg/ml alone (tobramycin 0), mesylate",3.11 and 3.07
same,optical density at 405 nm,"[4]; HT61 32 μg/ml alone (tobramycin 0), mesylate",3.09 and 3.04
same,optical density at 405 nm,"[4]; HT61 64 μg/ml alone (tobramycin 0), mesylate",3.01 and 3.09
same,MIC,[4]; log phase P. aeruginosa,no MIC
same,MIC of HT61 in combination with tobramycin,"[4]; with tobramycin at 0.5 μg/ml, log phase P. aeruginosa",16 µg/mL
NC[C@H]1O[C@H](O[C@H]2[C@H](O)[C@@H](O[C@H]3O[C@H](CO)[C@@H](O)[C@H](N)[C@H]3O)[C@H](N)C[C@@H]2N)[C@H](O)[C@@H](O)[C@@H]1O [Kanamycin],MIC,[1]; [6],8 µg/mL
NC[C@H]1O[C@H](O[C@H]2[C@H](O)[C@@H](O[C@H]3O[C@H](CO)[C@@H](O)[C@H](N)[C@H]3O)[C@H](N)C[C@@H]2N)[C@H](N)C[C@@H]1O [Tobramycin],activity alone against stationary phase P. aeruginosa,[3]; alone at 2 and 1 μg/ml,very low or no activities
same,MIC,"[4]; Pseudomonas aeruginosa, log phase P. aeruginosa, read-out: MIC",1 µg/mL
same,optical density at 405 nm,[4]; tobramycin 0.01563 μg/ml alone (HT61 0),3.25 and 3.14
same,optical density at 405 nm,[4]; tobramycin 0.03125 μg/ml alone (HT61 0),3.24 and 3.18
same,optical density at 405 nm,[4]; tobramycin 0.0625 μg/ml alone (HT61 0),3.16 and 3.09
same,optical density at 405 nm,[4]; tobramycin 0.125 μg/ml alone (HT61 0),3.15 and 3.08
same,optical density at 405 nm,[4]; tobramycin 0.25 μg/ml alone (HT61 0),3.04 and 2.97
same,optical density at 405 nm,[4]; tobramycin 0.5 μg/ml alone (HT61 0),2.19 and 2.18
same,optical density at 405 nm,[4]; tobramycin 1 μg/ml alone (HT61 0),0.46
same,optical density at 405 nm,[4]; tobramycin 2 μg/ml alone (HT61 0),0.44 and 0.45
same,optical density at 405 nm,[4]; tobramycin 4 μg/ml alone (HT61 0),0.47 and 0.50
same,optical density at 405 nm,[4]; tobramycin 8 μg/ml alone (HT61 0),0.44
CC[C@H]1OC(=O)[C@H](C)[C@@H](O[C@H]2C[C@@](C)(OC)[C@@H](O)[C@H](C)O2)[C@H](C)[C@@H](O[C@@H]2O[C@H](C)C[C@H](N(C)C)[C@H]2O)[C@](C)(O)C[C@@H](C)CN(C)[C@H](C)[C@@H](O)[C@]1(C)O [azithromycin],activity against clinically latent microorganisms,[5],little or no activity
CC(=O)NC[C@H]1CN(c2ccc(N3CCOCC3)c(F)c2)C(=O)O1 [linezolid],activity against clinically latent microorganisms,[5],little or no activity
C/C(=C\C(=O)OCCCCCCCCC(=O)O)C[C@@H]1OC[C@H](C[C@@H]2O[C@H]2[C@@H](C)[C@H](C)O)[C@@H](O)[C@H]1O [mupirocin],activity against clinically latent microorganisms,[5],little or no activity
Gentamicin,MIC,[1],1 µg/mL
same,MBC,[2],8 µg/mL
co-amoxiclav,activity against clinically latent microorganisms,[5],little or no activity
